How the values were obtained:
LL29 cells = test: Inhibition of the fibrotic process (αSMA staining) in TGF-β1 treated primary human fibroblasts from IPF patients; type: cell-based; conditions: Fibroblast, 96 h, TGF-β1 20 ng/mL, 4 days, dose-response 10 μM to 1.87 nM, read-out: Inhibition of fibrosis EC50
Text: The above synthesized compounds were screened using primary human fibroblasts (derived from IPF patients) treated with TGF-β1 to determine their ability to inhibit the fibrotic process.
Primary human fibroblasts derived from IPF patients (LL29 cells) [^1Xiaoqiu Liu, et. al., “Fibrotic Lung Fibroblasts Show Blunted Inhibition by cAMP Due to Deficient cAMP Response Element-Binding Protein Phosphorylation”, Journal of Pharmacology and Experimental Therapeutics (2005), 315(2), 678-687; ^2Watts, K. L., et. al., “RhoA signaling modulates cyclin D1 expression in human lung fibroblasts; implications for idiopathic pulmonary fibrosis”, Respiratory Research (2006), 7(1), 88] were obtained from American Type Culture Collection (ATCC) and expanded in F12 medium supplemented with 15% Fetal Bovine Serum and Penicillin/Streptomycin.
Each compound was dissolved in DMSO as a 10 mM stock and used to prepare compound source plates. Serial dilution (1:2, 11-point dose-response curves from 10 μM to 1.87 nM) and compound transfer was performed using the ECHO 550 (Labcyte, Sunnyvale, Calif.) into 384-well clear bottom assay plates (Greiner Bio-One) with appropriate DMSO backfill for a final DMSO concentration of 0.1%. LL29 cells were plated at 1,500 cells/well in 80 μl/well F12 medium supplemented with 1% Fetal Bovine Serum. One hour after addition of the cells, TGF-β1 (Peprotech; 20 ng/mL) was added to the plates to induce fibrosis (ref. 1 and 2 above). Wells treated with TGF-β1 and containing DMSO were used as controls. Cells were incubated at 37° C. and 5% CO2 for 4 days. Following incubation for 4 days, SYTOX green nucleic acid stain (Life Technologies [Thermo Fisher Scientific]) was added to the wells at a final concentration of 1 uM and incubated at room temperature for 30 min. Cells were then fixed using 4% formaldehyde (Electron Microscopy Sciences), washed 3 times with PBS followed by blocking and permeabilization using 3% Bovine Serum Albumin (BSA; Sigma) and 0.3% Triton X-100 (Sigma) in PBS. Cells were then stained with antibody specific to α-smooth muscle actin (αSMA; Abcam) (ref. 1 and 2 above) in 3% Bovine Serum Albumin (BSA; Sigma) and 0.3% Triton X-100 (Sigma) in PBS, and incubated overnight at 4° C. Cells were then washed 3 times with PBS, followed by incubation with Alexa Flor-647 conjugated secondary antibody (Life Technologies [Thermo Fisher Scientific]) and DAPI at room temperature for 1 hour. Cells were then washed 3 times with PBS and plates were sealed for imaging. αSMA staining was imaged by excitation at 630 nm and emission at 665 nm and quantified using the Compartmental Analysis program on the CellInsight CX5 (Thermo Scientific). Dead or apoptotic cells were excluded from analysis based on positive SYTOX green staining. % of total cells positive for αSMA were counted in each well and normalized to the average of 11 wells treated with TGF-31 on the same plate using Dotmatics' Studies Software. The normalized averages (fold change over untreated) of 3 replicate wells for each compound concentration were used to create dose-responses curves and EC50 values were calculated using non-linear regression curve fit in the Dotmatics' Studies Software. The EC50 values are reported.

[1] = tested on: Wnt pathway (Sp5-Luc reporter, SW480 cells); test: Sp5-Luc reporter gene screening assay for Wnt activity in SW480 colon carcinoma cells; type: cell-based; conditions: Homo sapiens
Text: The screening assay for Wnt activity is described as follows. Reporter cell lines can be generated by stably transducing cancer cell lines (e.g., colon cancer) or primary cells (e.g., IEC-6 intestinal cells) with a lentiviral construct that includes a Wnt-responsive promoter driving expression of the firefly luciferase gene.
SW480 colon carcinoma cells were transduced with a lentiviral vector expressing luciferase with a human Sp5 promoter consisting of a sequence of eight TCF/LEF binding sites. SW480 cells stably expressing the Sp5-Luc reporter gene and a hygromycin resistance gene were selected by treatment with 150 μg/ml of hygromycin for 7 days. These stably transduced SW480 cells were expanded in cell culture and used for all further screening activities. For Sp5-Luc reporter gene assays, the cells were plated at 10,000 cells/well in 96-well plates with growth medium containing 10% fetal calf serum and incubated overnight at 37° C. and 5% CO2. Each compound was dissolved in DMSO as a 10 mM stock in standard j-vials and used to prepare compound source plates in dose-response format with 3-fold serial dilutions and a 10 mM top concentration. Compound transfer from serially diluted source plates to assay plates containing the cells was accomplished using a pintool (Multimek 96, Beckman equipped with V&P Scientific FP1S50H pins) based liquid handling protocol. This protocol used a slotted pin to transfer 50 nl of compound from a source plate well to an assay plate well containing 50 μl of cells in growth medium. […] Control wells received 50 nl of DMSO treatment for normalization and calculating IC50 values. The treated cells were incubated at 37° C. and 5% CO2 for an additional forty-two hours. Following incubation, the growth medium was removed and 50 μl of BrightGlo luminescence reagent (Promega) was added to each well of the 96-well assay plates. The plates were placed on an orbital shaker for 5 min and then luminescence was quantified on the Victor3 (Perkin Elmer) plate reader. Readings were normalized to DMSO only treated cells, and normalized activities were utilized for IC50 calculations using the dose-response log (inhibitor) vs. response-variable slope (four parameters) nonlinear regression feature available in GraphPad Prism 5.0 or 6.0.

| SMILES | EC50 (LL29 cells) [nM] | IC50 [1] [nM] |
| --- | --- | --- |
| CN(C)c1cncc(-c2cc3c(-c4nc5c(-c6cccc(F)c6)nccc5[nH]4)n[nH]c3cn2)c1 [Compound 7, 5-(3-(4-(3-Fluorophenyl)-1H-imidazo[4,5-c]pyridin-2-yl)-1H-pyrazolo[3,4-c]pyridin-5-yl)-N,N-dimethylpyridin-3-amine] | ≤ 9 | 11.4 |
| CN(C)Cc1cncc(-c2cc3c(-c4nc5c(-c6cccc(F)c6)nccc5[nH]4)n[nH]c3cn2)c1 [Compound 13, 1-(5-(3-(4-(3-Fluorophenyl)-1H-imidazo[4,5-c]pyridin-2-yl)-1H-pyrazolo[3,4-c]pyridin-5-yl)pyridin-3-yl)-N,N-dimethylmethanamine] | 1660 | 157 |
| O=C(Nc1cncc(-c2cc3c(-c4nc5c(-c6cccc(F)c6)nccc5[nH]4)n[nH]c3cn2)c1)C1CC1 [Compound 19, N-(5-(3-(4-(3-Fluorophenyl)-1H-imidazo[4,5-c]pyridin-2-yl)-1H-pyrazolo[3,4-c]pyridin-5-yl)pyridin-3-yl)cyclopropanecarboxamide] | ≤ 9 | 25.6 |
| Fc1cccc(-c2nccc3[nH]c(-c4n[nH]c5cnc(-c6cncc(CN7CCC(F)(F)C7)c6)cc45)nc23)c1 [Compound 25, 5-(5-((3,3-Difluoropyrrolidin-1-yl)methyl)pyridin-3-yl)-3-(4-(3-fluorophenyl)-1H-imidazo[4,5-c]pyridin-2-yl)-1H-pyrazolo[3,4-c]pyridine] | 185 | 30.8 |
| CC(C)CC(=O)Nc1cncc(-c2cc3c(-c4nc5c(-c6ccc(F)cc6)nccc5[nH]4)n[nH]c3cn2)c1 [Compound 28, N-(5-(3-(4-(4-Fluorophenyl)-1H-imidazo[4,5-c]pyridin-2-yl)-1H-pyrazolo[3,4-c]pyridin-5-yl)pyridin-3-yl)-3-methylbutanamide] | 553 | 174 |
| CC(C)(C)C(=O)Nc1cncc(-c2cc3c(-c4nc5c(-c6ccc(F)cc6)nccc5[nH]4)n[nH]c3cn2)c1 [Compound 34, N-(5-(3-(4-(4-Fluorophenyl)-1H-imidazo[4,5-c]pyridin-2-yl)-1H-pyrazolo[3,4-c]pyridin-5-yl)pyridin-3-yl)pivalamide] | 515 | 50.9 |
| Fc1ccc(-c2nccc3[nH]c(-c4n[nH]c5cnc(-c6cncc(CN7CCCC7)c6)cc45)nc23)cc1 [Compound 40, 3-(4-(4-Fluorophenyl)-1H-imidazo[4,5-c]pyridin-2-yl)-5-(5-(pyrrolidin-1-ylmethyl)pyridin-3-yl)-1H-pyrazolo[3,4-c]pyridine] | ≥ 9990 | > 10000 |
| O=C(Nc1cncc(-c2cc3c(-c4nc5c(-c6ccc(F)cc6)nccc5[nH]4)n[nH]c3cn2)c1)C1CCC1 [Compound 46, N-(5-(3-(4-(4-Fluorophenyl)-1H-imidazo[4,5-c]pyridin-2-yl)-1H-pyrazolo[3,4-c]pyridin-5-yl)pyridin-3-yl)cyclobutanecarboxamide] | ≤ 9 | 61 |
| Fc1ccc(-c2nccc3[nH]c(-c4n[nH]c5cnc(-c6cncnc6)cc45)nc23)cc1 [Compound 52, 3-(4-(4-Fluorophenyl)-1H-imidazo[4,5-c]pyridin-2-yl)-5-(pyrimidin-5-yl)-1H-pyrazolo[3,4-c]pyridine] | 44 | 74.1 |
| CC(C)(C)C(=O)Nc1cncc(-c2cc3c(-c4nc5c(-c6ccccc6F)nccc5[nH]4)n[nH]c3cn2)c1 [Compound 60, N-(5-(3-(4-(2-Fluorophenyl)-1H-imidazo[4,5-c]pyridin-2-yl)-1H-pyrazolo[3,4-c]pyridin-5-yl)pyridin-3-yl)pivalamide] | 878 | 115 |
| CC(C)C(=O)Nc1cncc(-c2cc3c(-c4nc5c(-c6ccccc6F)nccc5[nH]4)n[nH]c3cn2)c1 [Compound 61, N-(5-(3-(4-(2-Fluorophenyl)-1H-imidazo[4,5-c]pyridin-2-yl)-1H-pyrazolo[3,4-c]pyridin-5-yl)pyridin-3-yl)isobutyramide] | 153 | 192 |
| O=C(Nc1cncc(-c2cc3c(-c4nc5c(-c6ccccc6F)nccc5[nH]4)n[nH]c3cn2)c1)C1CCCC1 [Compound 73, N-(5-(3-(4-(2-Fluorophenyl)-1H-imidazo[4,5-c]pyridin-2-yl)-1H-pyrazolo[3,4-c]pyridin-5-yl)pyridin-3-yl)cyclopentanecarboxamide] | 534 | 264 |
| CC(C)C(=O)Nc1cncc(-c2cc3c(-c4nc5c(-c6cccnc6)nccc5[nH]4)n[nH]c3cn2)c1 [Compound 87, N-(5-(3-(4-(Pyridin-3-yl)-1H-imidazo[4,5-c]pyridin-2-yl)-1H-pyrazolo[3,4-c]pyridin-5-yl)pyridin-3-yl)isobutyramide] | ≥ 9990 | > 10000 |
| CC(C)Nc1cncc(-c2cc3c(-c4nc5c(-c6cccnc6)nccc5[nH]4)n[nH]c3cn2)c1 [Compound 90, N-Isopropyl-5-(3-(4-(pyridin-3-yl)-1H-imidazo[4,5-c]pyridin-2-yl)-1H-pyrazolo[3,4-c]pyridin-5-yl)pyridin-3-amine] | ≤ 9 | 11.2 |
| Cc1ccncc1-c1cc2c(-c3nc4c(-c5ccncc5)nccc4[nH]3)n[nH]c2cn1 [Compound 109, 5-(4-Methylpyridin-3-yl)-3-(4-(pyridin-4-yl)-1H-imidazo[4,5-c]pyridin-2-yl)-1H-pyrazolo[3,4-c]pyridine] | ≥ 9990 | 114 |
| CCCC(=O)Nc1cncc(-c2cc3c(-c4nc5c(-c6ccncc6)nccc5[nH]4)n[nH]c3cn2)c1 [Compound 121, N-(5-(3-(4-(Pyridin-4-yl)-1H-imidazo[4,5-c]pyridin-2-yl)-1H-pyrazolo[3,4-c]pyridin-5-yl)pyridin-3-yl)butyramide] | ≥ 9990 | > 10000 |
| CC(C)CC(=O)Nc1cncc(-c2cc3c(-c4nc5c(-c6ccccn6)nccc5[nH]4)n[nH]c3cn2)c1 [Compound 132, 3-Methyl-N-(5-(3-(4-(pyridin-2-yl)-1H-imidazo[4,5-c]pyridin-2-yl)-1H-pyrazolo[3,4-c]pyridin-5-yl)pyridin-3-yl)butanamide] | 685 | 198 |
| CC(C)CC(=O)Nc1cncc(-c2cc3c(-c4nc5c(-c6cc(F)cc(OCCN7CCCC7)c6)nccc5[nH]4)n[nH]c3cn2)c1 [Compound 1306, N-(5-(3-(4-(3-Fluoro-5-(2-(pyrrolidin-1-yl)ethoxy)phenyl)-1H-imidazo[4,5-c]pyridin-2-yl)-1H-pyrazolo[3,4-c]pyridin-5-yl)pyridin-3-yl)-3-methylbutanamide] |  | 4220 |

Source: patent US9844536B2, “3-(1H-imidazo[4,5-C]pyridin-2-yl)-1H-pyrazolo[3,4-C]pyridine and therapeutic uses thereof” (Samumed, LLC, priority 2014, dated 2017)
